Data from PubChem BioAssay (NCI).
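Step 1: Grow cells in 96-well plates. Step 2: Expose to compound for 48 hours at 5 concentrations. Step 3: Interpolate endpoints linearly; if unreached, use highest concentration. The concentration for full growth arrest is given as TGI.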

Legend:
Assay in all cases: DTP human tumour cell line panel, 48 h
ACHN renal = test system: ACHN renal
NCI-H226 lung = test system: NCI-H226 lung
A549 NSCLC = test system: A549 NSCLC
K-562 leukemia = test system: K-562 leukemia
XF 498 CNS = test system: XF 498 CNS
U251 CNS = test system: U251 CNS
HL-60(TB) leukemia = test system: HL-60(TB) leukemia
TK-10 renal = test system: TK-10 renal
OVCAR-8 ovarian = test system: OVCAR-8 ovarian
SF-268 CNS = test system: SF-268 CNS
MOLT-4 leukemia = test system: MOLT-4 leukemia
KM12 colon = test system: KM12 colon
RXF-631 renal = test system: RXF-631 renal
SF-539 CNS = test system: SF-539 CNS
SK-MEL-28 melanoma = test system: SK-MEL-28 melanoma
DU-145 prostate = test system: DU-145 prostate
OVCAR-3 ovarian = test system: OVCAR-3 ovarian
SW-620 colon = test system: SW-620 colon
CCRF-CEM leukemia = test system: CCRF-CEM leukemia
MALME-3M melanoma = test system: MALME-3M melanoma
HOP-18 NSCLC = test system: HOP-18 NSCLC
KM20L2 colon = test system: KM20L2 colon
A498 renal = test system: A498 renal
OVCAR-4 ovarian = test system: OVCAR-4 ovarian
SR leukemia = test system: SR leukemia
NCI-H522 lung = test system: NCI-H522 lung
HT29 colon = test system: HT29 colon
HCT-15 colon = test system: HCT-15 colon
786-0 renal = test system: 786-0 renal
HCT-116 colon = test system: HCT-116 colon
M19-MEL melanoma = test system: M19-MEL melanoma
UACC-62 melanoma = test system: UACC-62 melanoma
IGROV1 ovarian = test system: IGROV1 ovarian
UACC-257 melanoma = test system: UACC-257 melanoma
DLD-1 colon = test system: DLD-1 colon
NCI-H460 lung = test system: NCI-H460 lung
RPMI-8226 leukemia = test system: RPMI-8226 leukemia
LXFL 529 NSCLC = test system: LXFL 529 NSCLC
CAKI-1 renal = test system: CAKI-1 renal
SNB-19 CNS = test system: SNB-19 CNS
SN12C renal = test system: SN12C renal
LOX IMVI melanoma = test system: LOX IMVI melanoma
SK-MEL-2 melanoma = test system: SK-MEL-2 melanoma
SNB-75 CNS = test system: SNB-75 CNS
RXF 393 renal = test system: RXF 393 renal
SF-295 CNS = test system: SF-295 CNS
M14 melanoma = test system: M14 melanoma
COLO 205 colon = test system: COLO 205 colon
UO-31 renal = test system: UO-31 renal
SK-OV-3 ovarian = test system: SK-OV-3 ovarian
HCC-2998 colon = test system: HCC-2998 colon
SK-MEL-5 melanoma = test system: SK-MEL-5 melanoma
OVCAR-5 ovarian = test system: OVCAR-5 ovarian
HOP-92 NSCLC = test system: HOP-92 NSCLC
NCI-H23 lung = test system: NCI-H23 lung
HOP-62 NSCLC = test system: HOP-62 NSCLC
EKVX NSCLC = test system: EKVX NSCLC
DMS 114 small cell lung = test system: DMS 114 small cell lung

Measured: TGI

CCOC(=O)C=C1CCC2(CC1)OCCO2
not listed: HOP-62 NSCLC | EKVX NSCLC | DMS 114 small cell lung
> 100 µM: all other assays above

CON(C)C(=O)CCCO
not listed: DU-145 prostate | A498 renal | LOX IMVI melanoma | SK-OV-3 ovarian | HCC-2998 colon | OVCAR-5 ovarian
> 100 µM: all other assays above

COc1cc2c[n+]3ccc4cc(OC)c(OC)cc4c3cc2cc1O
not listed: NCI-H226 lung | DU-145 prostate | OVCAR-3 ovarian | OVCAR-4 ovarian | CAKI-1 renal | COLO 205 colon | HOP-62 NSCLC | DMS 114 small cell lung
> 100 µM: all other assays above
